{
  "source": "ChEMBL document CHEMBL6182948",
  "about": "(J Med Chem, 2025)",
  "key": {"A549/TR [1]": {"system": "A549/TR", "assay": "Synergistic antiproliferative activity against human A549/Taxol cells assessed as combination index at 2.5 uM in presence of 0.05 uM paclitaxel by Chou-Talalay method", "assay_type": "functional"}, "[2]": {"assay": "Tmax in male Sprague-Dawley rat at 10 mg/kg, po measured up to 24 hrs by LC-MS/MS analysis", "assay_type": "ADME, organism-based", "details": "in vivo"}, "[3]": {"assay": "MRT (0 to infinity) in male Sprague-Dawley rat at 10 mg/kg, po measured up to 24 hrs by LC-MS/MS analysis", "assay_type": "ADME, organism-based", "details": "in vivo"}, "A549/TR [4]": {"system": "A549/TR", "assay": "Synergistic antiproliferative activity against human A549/Taxol cells assessed as combination index at 20 uM in presence of 0.1 uM paclitaxel by Chou-Talalay method", "assay_type": "functional"}, "[5]": {"assay": "Half life in male Sprague-Dawley rat at 10 mg/kg, po measured up to 24 hrs by LC-MS/MS analysis", "assay_type": "ADME, organism-based", "details": "in vivo"}, "[6]": {"assay": "AUC (0 to t) in male Sprague-Dawley rat at 10 mg/kg, po measured up to 24 hrs by LC-MS/MS analysis", "assay_type": "ADME, organism-based", "details": "in vivo"}, "A549/TR [7]": {"system": "A549/TR", "assay": "Synergistic antiproliferative activity against human A549/Taxol cells assessed as combination index at 20 uM in presence of 0.025 uM paclitaxel by Chou-Talalay method", "assay_type": "functional"}, "[8]": {"assay": "Cmax in male Sprague-Dawley rat at 2 mg/kg, iv measured up to 24 hrs by LC-MS/MS analysis", "assay_type": "ADME, organism-based", "details": "in vivo"}, "[9]": {"assay": "MRT (0 to infinity) in male Sprague-Dawley rat at 2 mg/kg, iv measured up to 24 hrs by LC-MS/MS analysis", "assay_type": "ADME, organism-based", "details": "in vivo"}, "A549/TR [10]": {"system": "A549/TR", "assay": "Synergistic antiproliferative activity against human A549/Taxol cells assessed as combination index at 10 uM in presence of 0.5 uM paclitaxel by Chou-Talalay method", "assay_type": "functional"}, "A549/TR [11]": {"system": "A549/TR", "assay": "Synergistic antiproliferative activity against human A549/Taxol cells assessed as combination index at 2.5 uM in presence of 0.1 uM paclitaxel by Chou-Talalay method", "assay_type": "functional"}, "[12]": {"assay": "Tmax in male Sprague-Dawley rat at 2 mg/kg, iv measured up to 24 hrs by LC-MS/MS analysis", "assay_type": "ADME, organism-based", "details": "in vivo"}, "A549/TR [13]": {"system": "A549/TR", "assay": "Synergistic antiproliferative activity against human A549/Taxol cells assessed as combination index at 10 uM in presence of 0.025 uM paclitaxel by Chou-Talalay method", "assay_type": "functional"}, "A549/TR [14]": {"system": "A549/TR", "assay": "Synergistic antiproliferative activity against human A549/Taxol cells assessed as combination index at 2.5 uM in presence of 0.5 uM paclitaxel by Chou-Talalay method", "assay_type": "functional"}, "[15]": {"assay": "Half life in male Sprague-Dawley rat at 2 mg/kg, iv measured up to 24 hrs by LC-MS/MS analysis", "assay_type": "ADME, organism-based", "details": "in vivo"}, "A549/TR [16]": {"system": "A549/TR", "assay": "Synergistic antiproliferative activity against human A549/Taxol cells assessed as combination index at 5 uM in presence of 0.5 uM paclitaxel by Chou-Talalay method", "assay_type": "functional"}, "[17]": {"assay": "Cmax in male Sprague-Dawley rat at 10 mg/kg, po measured up to 24 hrs by LC-MS/MS analysis", "assay_type": "ADME, organism-based", "details": "in vivo"}, "[18]": {"assay": "AUC (0 to infinity) in male Sprague-Dawley rat at 10 mg/kg, po measured up to 24 hrs by LC-MS/MS analysis", "assay_type": "ADME, organism-based", "details": "in vivo"}, "[19]": {"assay": "MRT (0 to t) in male Sprague-Dawley rat at 2 mg/kg, iv measured up to 24 hrs by LC-MS/MS analysis", "assay_type": "ADME, organism-based", "details": "in vivo"}, "A549/TR [20]": {"system": "A549/TR", "assay": "Synergistic antiproliferative activity against human A549/Taxol cells assessed as combination index at 10 uM in presence of 0.1uM paclitaxel by Chou-Talalay method", "assay_type": "functional"}, "A549/TR [21]": {"system": "A549/TR", "assay": "Inhibition of cell invasion in human A549/Taxol cells assessed as invasive cells at 2.5 uM incubated for 24 hrs by transwell invasion assay relative to control", "assay_type": "functional", "parameters": "scale not given: the % may be the effect or the level left"}, "A549/TR [22]": {"system": "A549/TR", "assay": "Inhibition of cell migration in human A549/Taxol cells assessed as suppression of wound closure measured after 24 hrs by scratch-wound healing assay", "assay_type": "functional, cell-based", "details": "dose 2.5-5 µM"}, "A549/TR [23]": {"system": "A549/TR", "assay": "Synergistic antiproliferative activity against human A549/Taxol cells assessed as combination index at 10 uM in presence of 0.05 uM paclitaxel by Chou-Talalay method", "assay_type": "functional"}, "[24]": {"assay": "Apparent volume of distribution in male Sprague-Dawley rat at 2 mg/kg, iv measured up to 24 hrs by LC-MS/MS analysis", "assay_type": "ADME, organism-based", "details": "in vivo, read-out: Vz"}, "[25]": {"assay": "Oral bioavailability in male Sprague-Dawley rat at 10 mg/kg measured up to 24 hrs by LC-MS/MS analysis", "assay_type": "ADME, organism-based", "details": "in vivo"}, "[26]": {"assay": "Clearance in male Sprague-Dawley rat at 2 mg/kg, iv measured up to 24 hrs by LC-MS/MS analysis", "assay_type": "ADME, organism-based", "details": "in vivo"}, "A549/TR [27]": {"system": "A549/TR", "assay": "Synergistic antiproliferative activity against human A549/Taxol cells assessed as combination index at 5 uM in presence of 0.025 uM paclitaxel by Chou-Talalay method", "assay_type": "functional"}, "A549/TR [28]": {"system": "A549/TR", "assay": "Synergistic antiproliferative activity against human A549/Taxol cells assessed as combination index at 20 uM in presence of 0.5 uM paclitaxel by Chou-Talalay method", "assay_type": "functional"}, "[29]": {"assay": "AUC (0 to t) in male Sprague-Dawley rat at 2 mg/kg, iv measured up to 24 hrs by LC-MS/MS analysis", "assay_type": "ADME, organism-based", "details": "in vivo"}, "A549/TR [30]": {"system": "A549/TR", "assay": "Synergistic antiproliferative activity against human A549/Taxol cells assessed as combination index at 5 uM in presence of 0.1uM paclitaxel by Chou-Talalay method", "assay_type": "functional"}},
  "data": [
    {"compound": "O=C(Nc1cc(Cl)cc(Cl)c1)c1nc(-c2cccc(Cl)c2)cs1", "values": [
      {"measurement": "CI", "setting": "A549/TR [1]", "value": 0.08},
      {"measurement": "Tmax", "setting": "[2]", "value": 1, "unit": "h"},
      {"measurement": "MRT inf", "setting": "[3]", "value": 2.42, "unit": "h"},
      {"measurement": "CI", "setting": "A549/TR [4]", "value": 0.63},
      {"measurement": "half-life", "setting": "[5]", "value": 1.12, "unit": "h"},
      {"measurement": "AUC(0-t) at 24 h", "setting": "[6]", "value": 236, "unit": "ng·h/mL"},
      {"measurement": "CI", "setting": "A549/TR [7]", "value": 0.63},
      {"measurement": "Cmax", "setting": "[8]", "value": 4750, "unit": "ng/mL"},
      {"measurement": "MRT inf", "setting": "[9]", "value": 0.73, "unit": "h"},
      {"measurement": "CI", "setting": "A549/TR [10]", "value": 1.14},
      {"measurement": "CI", "setting": "A549/TR [11]", "value": 0.09},
      {"measurement": "Tmax", "setting": "[12]", "value": 4.8, "unit": "min"},
      {"measurement": "CI", "setting": "A549/TR [13]", "value": 0.86},
      {"measurement": "CI", "setting": "A549/TR [14]", "value": 0.24},
      {"measurement": "half-life", "setting": "[15]", "value": 3.78, "unit": "h"},
      {"measurement": "CI", "setting": "A549/TR [16]", "value": 0.48},
      {"measurement": "Cmax", "setting": "[17]", "value": 81, "unit": "ng/mL"},
      {"measurement": "AUC(0-inf)", "setting": "[18]", "value": 239, "unit": "ng·h/mL"},
      {"measurement": "MRT last at 24 h", "setting": "[19]", "value": 0.64, "unit": "h"},
      {"measurement": "CI", "setting": "A549/TR [20]", "value": 0.47},
      {"measurement": "Activity", "setting": "A549/TR [21]", "value": 35.7, "unit": "%"},
      {"measurement": "inhibition", "setting": "A549/TR [22]", "value": "Dose-dependent-effect"},
      {"measurement": "CI", "setting": "A549/TR [23]", "value": 0.2},
      {"measurement": "Vd", "setting": "[24]", "value": 4.77, "unit": "L/kg"},
      {"measurement": "bioavailability", "setting": "[25]", "value": 2.08, "unit": "%"},
      {"measurement": "clearance", "setting": "[26]", "value": 14.7, "unit": "mL/min/kg"},
      {"measurement": "CI", "setting": "A549/TR [27]", "value": 0.71},
      {"measurement": "CI", "setting": "A549/TR [28]", "value": 2.15},
      {"measurement": "AUC(0-t) at 24 h", "setting": "[29]", "value": 2290, "unit": "ng·h/mL"},
      {"measurement": "CI", "setting": "A549/TR [30]", "value": 0.15}
    ]}
  ]
}
